Assays:
HIV integrase = HIV integrase (Human immunodeficiency virus type 1 group M subtype B, UniProt P04585); experiment: biochemical
Experimental: Representative compounds of the invention were tested for biological activity by methods including anti-HIV assay, measuring inhibition of HIV-integrase strand transfer catalysis, and cytotoxicity.
HIV Integrase Assay (IC50 Determination)
The HIV Integrase assay is carried out in Reacti-Bind High Binding Capacity Streptavidin coated plates (Pierce # 15502) in 100 μl reactions. The wells of the plate are rinsed once with PBS. Each well is then coated at room temperature for 1 h with 100 μl of 0.14 μM Donor DNA with the following sequence:
After coating, the plate was washed twice with PBS. 3′processing of the Donor DNA is started by adding 80 μl of Integrase/buffer mixture (25 mM HEPES, pH 7.3, 12.5 mM DTT, 93.75 mM NaCl, 12.5 mM MgCl2, 1.25% Glycerol, 0.3125 uM integrase) to each well. 3′processing is allowed to proceed for 30 min at 37° C., after which, 10 μl of test compound and 10 μl of 2.5 uM DIG-labeled Target DNA with the following sequence:
are added to each well to allow strand transfer to proceed for 30 min at 37° C. The plate is then washed three times with 2×SSC for 5 min and rinsed once with PBS. For detection of integrated product, 100 μl of a 1/2000 dilution of HRP-conjugated anti-DIG antibody (Pierce #31468) are added to each well and incubated for 1 hour. The plate was then washed three times for 5 min each, with 0.05% Tween-20 in PBS. For signal development and amplification, 100 μl of SuperSignal ELISA Femto Substrate (Pierce #37075) are added to each well. Chemiluminescence (in relative light units) is read immediately at 425 nm in the SPECTRAmax GEMINI Microplate Spectrophotometer using the end point mode at 5 sec per well.
For IC50 determinations, eight concentrations of test compounds in a 1/2.2 dilution series are used.

HIV-IIIb = experiment: Antiviral assay in MT-4 cells infected with HIV-IIIb; assay type: cell-based; conditions: MT4, 120 h; MT-4 cells, HIV-IIIb, 5 days; read-out: EC50 Range MT-4
Experimental: See: Wolfe, etal J. Virol.
Antiviral Assays in MT2 and MT4 Cells
For the antiviral assay utilizing MT-2 cells, 50 μl of 2× test concentration of 5-fold serially diluted compound in culture medium with 10% FBS was added to each well of a 96-well plate (9 concentrations) in triplicate. MT-2 cells were infected with HIV-IIIb at a multiplicity of infection (m.o.i) of 0.01 for 3 hours. Fifty microliters of infected cell suspension in culture medium with 10% FBS (˜1.5×10^4 cells) was then added to each well containing 50 μl of diluted compound. The plates were then incubated at 37° C. for 5 days. For the antiviral assay utilizing MT-4 cells, 20 μl of 2× test concentration of 5-fold serially diluted compound in culture medium with 10% FBS was added to each well of a 384-well plate (7 concentrations) in triplicate. MT-4 cells were next mixed with HIV-IIIb at an m.o.i. of 0.1 and 20 μl of virus/cell mixture (˜2000 cells) was immediately added to each well containing 20 μl of diluted compound. The plates were then incubated at 37° C. for 5 days. After 5 days of incubation, 100 μl of CellTiter-Glo™ Reagent (catalog # G7571, Promega Biosciences, Inc., Madison, Wis.) was added to each well containing MT-2 cells and 40 μl to each well containing MT-4 cells. Cell lysis was carried out by incubating at room temperature for 10 min and then chemiluminescence was read.

Compound	IC50 (HIV integrase)	EC50 (HIV-IIIb)
CC1c2c(c(O)c3ncccc3c2N(C)S(C)(=O)=O)C(=O)N1Cc1ccc(F)cc1 (racemic) [Compound 74, N-(7-(4-fluorobenzyl)-9-hydroxy-6-(R and S)-methyl-8-oxo-7,8-dihydro-6H-pyrrolo[3,4-g]quinolin-5-yl)-N-methylmethanesulfonamide]	< 60 nM	< 60 nM
C[C@H]1c2c(c(O)c3ncccc3c2N(C)S(C)(=O)=O)C(=O)N1Cc1ccc(F)cc1 (single isomer, unassigned) [Compound 75]	< 60 nM	< 60 nM
C[C@@H]1c2c(c(O)c3ncccc3c2N(C)S(C)(=O)=O)C(=O)N1Cc1ccc(F)cc1 (single isomer, unassigned) [Compound 76]	< 60 nM	< 60 nM
CN(c1c2c(c(O)c3ncccc13)C(=O)N(Cc1ccc(F)cc1)C2O)S(C)(=O)=O (single isomer, unassigned) [Compound 166, N-(7-(4-fluorobenzyl)-6,9-dihydroxy-8-oxo-7,8-dihydro-6H-pyrrolo[3,4-g]quinolin-5-yl)-N-methylmethanesulfonamide]	< 60 nM	< 60 nM
Nc1c2c(c(O)c3ncccc13)C(=O)N(Cc1ccc(F)cc1)C2=O [Compound 8, 5-amino-7-(4-fluorobenzyl)-9-hydroxy-6H-pyrrolo[3,4-g]quinoline-6,8(7H)-dione]	60 to 1000 nM	> 1000 nM
CN(c1c2c(c(O)c3ncccc13)C(=O)N(Cc1ccc(F)cc1)C2)S(C)(=O)=O [Compound 29, N-(7-(4-fluorobenzyl)-9-hydroxy-8-oxo-7,8-dihydro-6H-pyrrolo[3,4-g]quinolin-5-yl)-N-methylmethanesulfonamide]	< 60 nM	< 60 nM
CN(c1c2c(c(OCOC(=O)OC3CCCC3)c3ncccc13)C(=O)N(Cc1ccc(F)cc1)C2)S(C)(=O)=O [Compound 30, (7-(4-fluorobenzyl)-5-(N-methylmethan-5-ylsulfonamido)-8-oxo-7,8-dihydro-6H-pyrrolo[3,4-g]quinolin-9-yloxy)methyl cyclopentyl carbonate]	> 1000 nM	60 to 1000 nM
CN(c1c2c(c(OCOC(=O)OC3CCC3)c3ncccc13)C(=O)N(Cc1ccc(F)cc1)C2)S(C)(=O)=O [Compound 31, (7-(4-fluorobenzyl)-5-(N-methylmethan-5-ylsulfonamido)-8-oxo-7,8-dihydro-6H-pyrrolo[3,4-g]quinolin-9-yloxy)methyl cyclobutyl carbonate]	> 1000 nM	< 60 nM
CCC(CC)OC(=O)OCOc1c2c(c(N(C)S(C)(=O)=O)c3cccnc13)CN(Cc1ccc(F)cc1)C2=O [Compound 32, (7-(4-fluorobenzyl)-5-(N-methylmethan-5-ylsulfonamido)-8-oxo-7,8-dihydro-6H-pyrrolo[3,4-g]quinolin-9-yloxy)methyl pentan-3-yl carbonate]	> 1000 nM	60 to 1000 nM
CC(C)OC(=O)OCOc1c2c(c(N(C)S(C)(=O)=O)c3cccnc13)CN(Cc1ccc(F)cc1)C2=O [Compound 33, (7-(4-fluorobenzyl)-5-(N-methylmethan-5-ylsulfonamido)-8-oxo-7,8-dihydro-6H-pyrrolo[3,4-g]quinolin-9-yloxy)methyl isopropyl carbonate]	> 1000 nM	< 60 nM
CC(C)OC(=O)Oc1c2c(c(N(C)S(C)(=O)=O)c3cccnc13)CN(Cc1ccc(F)cc1)C2=O [Compound 34, 7-(4-fluorobenzyl)-5-(N-methylmethan-5-ylsulfonamido)-8-oxo-7,8-dihydro-6H-pyrrolo[3,4-g]quinolin-9-yl isopropyl carbonate]	> 1000 nM	< 60 nM
CN(C)S(=O)(=O)N(C)c1c2c(c(O)c3ncccc13)C(=O)N(Cc1ccc(F)cc1)C2 [Compound 38, N-(7-(4-fluorobenzyl)-9-hydroxy-8-oxo-7,8-dihydro-6H-pyrrolo[3,4-g]quinolin-5-yl)-N,N′,N′-trimethylsulfamide]	60 to 1000 nM	< 60 nM
CN(C)S(=O)(=O)Nc1c2c(c(O)c3ncccc13)C(=O)N(Cc1ccc(F)cc1)C2 [Compound 41, N-(7-(4-fluorobenzyl)-9-hydroxy-8-oxo-7,8-dihydro-6H-pyrrolo[3,4-g]quinolin-5-yl)-N′,N′-dimethylsulfamide]	60 to 1000 nM	< 60 nM
CN(C)CCCS(=O)(=O)N(C)c1c2c(c(O)c3ncccc13)C(=O)N(Cc1ccc(F)cc1)C2 [Compound 44, N-(7-(4-fluorobenzyl)-9-hydroxy-8-oxo-7,8-dihydro-6H-pyrrolo[3,4-g]quinolin-5-yl)-N-methyl-3-(dimethylamino)-propane-1-sulfonamide]	< 60 nM	< 60 nM
CN(c1c2c(c(O)c3ncccc13)C(=O)N(Cc1ccc(F)cc1)C2)S(=O)(=O)CCCN1CCOCC1 [Compound 46, N-(7-(4-fluorobenzyl)-9-hydroxy-8-oxo-7,8-dihydro-6H-pyrrolo[3,4-g]quinolin-5-yl)-N-methyl-3-morpholinopropane-1-sulfonamide]		< 60 nM
CN(c1c2c(c(O)c3ncccc13)C(=O)N(Cc1ccc(F)cc1)C2)S(=O)(=O)CCCC#N [Compound 48, 3-cyano-N-(7-(4-fluorobenzyl)-9-hydroxy-8-oxo-7,8-dihydro-6H-pyrrolo[3,4-g]quinolin-5-yl)-N-methylpropane-1-sulfonamide]		< 60 nM
CN(c1c2c(c(O)c3ncccc13)C(=O)N(Cc1ccc(F)cc1)C2)S(=O)(=O)CCCn1ccnc1 [Compound 49, N-(7-(4-fluorobenzyl)-9-hydroxy-8-oxo-7,8-dihydro-6H-pyrrolo[3,4-g]quinolin-5-yl)-3-(1 H-imidazol-1-yl)-N-methylpropane-1-sulfonamide]		< 60 nM
O=C1c2c(c(N3CCCS3(=O)=O)c3cccnc3c2O)CN1Cc1ccc(F)cc1 [Compound 52, N-(7-(4-fluorobenzyl)-9-hydroxy-8-oxo-7,8-dihydro-6H-pyrrolo[3,4-g]quinolin-5-yl)-N-2-dioxoisothiazolidine]	< 60 nM	< 60 nM
CC(C)S(=O)(=O)N(C)c1c2c(c(O)c3ncccc13)C(=O)N(Cc1ccc(F)cc1)C2 [Compound 54, N-(7-(4-fluorobenzyl)-9-hydroxy-8-oxo-7,8-dihydro-6H-pyrrolo[3,4-g]quinolin-5-yl)-N-methylpropane-2-sulfonamide]	60 to 1000 nM	< 60 nM
CN(c1c2c(c(O)c3ncccc13)C(=O)N(Cc1ccc(F)cc1)C2)S(=O)(=O)c1cn(C)cn1 [Compound 56, N-(7-(4-fluorobenzyl)-9-hydroxy-8-oxo-7,8-dihydro-6H-pyrrolo[3,4-g]quinolin-5-yl)-N,1-dimethyl-1 H-imidazole-4-sulfonamide]	< 60 nM	< 60 nM
Cc1nc(C)c(S(=O)(=O)N(C)c2c3c(c(O)c4ncccc24)C(=O)N(Cc2ccc(F)cc2)C3)s1 [Compound 58, N-(7-(4-fluorobenzyl)-9-hydroxy-8-oxo-7,8-dihydro-6H-pyrrolo[3,4-g]quinolin-5-yl)-N,2,4-trimethylthiazole-5-sulfonamide]	60 to 1000 nM	< 60 nM
CN(C)CCS(=O)(=O)N(C)c1c2c(c(O)c3ncccc13)C(=O)N(Cc1ccc(F)cc1)C2 [Compound 60, N-(7-(4-fluorobenzyl)-9-hydroxy-8-oxo-7,8-dihydro-6H-pyrrolo[3,4-g]quinolin-5-yl)-N-methyl-2-dimethylaminoethane-1-sulfonamide]	< 60 nM	< 60 nM
CN(C)C(=O)C(=O)N(C)c1c2c(c(O)c3ncccc13)C(=O)N(Cc1ccc(F)cc1)C2 [Compound 62, N1-(7-(4-fluorobenzyl)-9-hydroxy-8-oxo-7,8-dihydro-6H-pyrrolo[3,4-g]quinolin-5-yl)-N1,N2,N2-trimethyloxalamide]	60 to 1000 nM	< 60 nM
CC(=O)N(C)c1c2c(c(O)c3ncccc13)C(=O)N(Cc1ccc(F)cc1)C2 [Compound 64, N-(7-(4-fluorobenzyl)-9-hydroxy-8-oxo-7,8-dihydro-6H-pyrrolo[3,4-g]quinolin-5-yl)-N-methylacetamide]	< 60 nM	< 60 nM
CC(C)C(=O)Nc1c2c(c(O)c3ncccc13)C(=O)N(Cc1ccc(F)cc1)C2 [Compound 67, N-(7-(4-fluorobenzyl)-9-hydroxy-8-oxo-7,8-dihydro-6H-pyrrolo[3,4-g]quinolin-5-yl)isobutyramide]	< 60 nM	< 60 nM
CC(C)C(=O)N(C)c1c2c(c(O)c3ncccc13)C(=O)N(Cc1ccc(F)cc1)C2 [Compound 69, N-(7-(4-fluorobenzyl)-9-hydroxy-8-oxo-7,8-dihydro-6H-pyrrolo[3,4-g]quinolin-5-yl)-N-methylisobutyramide]	< 60 nM	< 60 nM
CN(c1c2c(c(O)c3ncccc13)C(=O)N(Cc1ccc(F)cc1)C2(C)C)S(C)(=O)=O [Compound 71, N-(7-(4-fluorobenzyl)-9-hydroxy-6,6-dimethyl-8-oxo-7,8-dihydro-6H-pyrrolo[3,4-g]quinolin-5-yl)-N-methylmethanesulfonamide]	60 to 1000 nM	< 60 nM
CCNS(=O)(=O)N(CC)c1c2c(c(O)c3ncccc13)C(=O)N(Cc1ccc(F)cc1)C2 [Compound 232]		< 60 nM

From US20070072831A1, “Integrase inhibitor compounds” (GILEAD SCIENCES, INC., priority 2005, published 2007)
